According to ChEMBL document CHEMBL1147061, “Antidepressant binding site in a bacterial homologue of neurotransmitter transporters” (Nature, 2007):

Columns and labels:
Aquifex aeolicus [1] = experiment: (§1) Binding affinity to Aquifex aeolicus sodium-coupled leucine transporter
[2] = as §1
Aquifex aeolicus [3] = experiment: Activity at Aquifex aeolicus sodium-coupled leucine transporter assessed as inhibition of L-[3H]Ala transport at 20 uM
[4] = Inhibition of L-[3H]Leu uptake at Aquifex aeolicus sodium-coupled leucine transporter
Aquifex aeolicus [5] = experiment: Activity at Aquifex aeolicus sodium-coupled leucine transporter assessed as inhibition of L-[3H]Ala transport at 50 uM
Aquifex aeolicus [6] = experiment: Activity at Aquifex aeolicus sodium-coupled leucine transporter assessed as inhibition of L-[3H]Ala transport at 1 uM
[7] = Inhibition of L-[3H]Ala uptake at Aquifex aeolicus sodium-coupled leucine transporter

Q: With CC(C)C[C@H](N)C(=O)O [LEUCINE] as the compound, how does the kcat (Aquifex aeolicus [1]) read?
A: 0.000333 s⁻¹

Q: What about the Kd [2] of the same compound?
A: 0.02 µM

Q: With CN(C)CCCN1c2ccccc2CCc2ccc(Cl)cc21 [CLOMIPRAMINE] as the compound, how does the Km (Aquifex aeolicus [3]) read?
A: 0.47 µM

Q: And the Vmax (Aquifex aeolicus [3])?
A: 970 pmol/min/mg

Q: And the IC50 [4]?
A: 250 µM

Q: And the Km (Aquifex aeolicus [5])?
A: 0.48 µM

Q: And the Vmax (Aquifex aeolicus [5])?
A: 770 pmol/min/mg

Q: And the Km (Aquifex aeolicus [6])?
A: 0.42 µM

Q: What about the Vmax (Aquifex aeolicus [6]) of the same compound?
A: 1480 pmol/min/mg

Q: What about the IC50 [7] of the same compound?
A: 4.7 µM
